In brackets after ≈: the same amount, converted by molar mass.
Columns and labels:
[1] = test system: LdTopIB; parameters: method as in PMID 24433962, doi:10.1016/j.molstruc.2019.03.032, PMID 34311084, PMID 36444862; settings: Figure 2; cited from earlier work
[2] = test system: promastigotes and the amastigotes forms of Leishmania (L.) species; parameters: method as in PMID 24433962, doi:10.1016/j.molstruc.2019.03.032, PMID 34311084, PMID 36444862; settings: Figure 2; cited from earlier work

Structure (SMILES)	melting point [°C]	IC50 [1] [µM]	EC50 [2] [µg/mL]	IC50 [2] [µM]
COC(=O)C1CC2CCCN2C12C(=O)N(Cc1ccccc1)c1ccccc12 (centres unmarked) [compound 15]	138 to 140	3.29		
Cc1ccc(C(CC(=O)c2ccccc2)C2C(=O)Nc3ccccc32)cc1 (centres unmarked) [compound 16]	112 to 114		16.2 (≈ 45.6 µM)	
O=C(c1ccc(F)cc1)C1C(c2ccc(Cl)cc2Cl)C2CSCN2C12C(=O)Nc1ccccc12 (centres unmarked) [compound 17]	103 to 105			39.8 ± 0.43
O=C1NC(=O)C2(CC(c3ccccc3)N(Cc3ccccc3)C(c3ccccc3)C2)N1c1ccccc1 (centres unmarked) [compound 19]	142 to 144			0.89

From article PMC10302753, “Natural-Product-Inspired Microwave-Assisted Synthesis of Novel Spirooxindoles as Antileishmanial Agents: Synthesis, Stereochemical Assignment, Bioevaluation, SAR, and Molecular Docking Studies” (Molecules, 2023)
